Where no end group is shown, it is not given here.
Columns and labels:
[1] = test system: HeLa cells; assay: PI-positive counting of GFP-PH versus GFP only transfected cells by CLSM; type: cell-based, human; conditions: 15 μM HBD-3, confocal imaging over 30 min, five independent experiments
Method: Live imaging was performed on a Zeiss LSM-780 confocal microscope using a 63× oil immersion objective in a 37°C incubator with 5% CO2. Adherent HeLa cells were cultured overnight on coverslips while suspension U937 cells were immobilised onto 0.01% (w/v) poly-L-lysine-coated coverslips. Both cell types were prepared in serum-free RPMI 1640 medium containing 0.1% (w/v) BSA and 2 μg/mL PI. HBD-3 or BODIPY FL EDA-labeled HBD-3 was added directly to the imaging chamber to final concentration of 15 μM, via a capillary tube. In certain experiments, prior to imaging, cells were pre-stained with the membrane dye PKH67 as per manufacturer's instructions (Sigma-Aldrich) or transfected with expression vectors carrying GFP only or GFP-tagged Pleckstrin homology domain of phospholipase C-delta 1 (GFP-PH(PLCδ1)) (kindly provided by Christina Mitchell, Monash University, Australia), using Lipofectamine 3000 reagent (Invitrogen) as per manufacturer's instructions. For CLSM involving transfections, images were taken as 4×4 tiles over 30 min, and the resultant data for GFP and GFP-PH transfected cells were analysed by counting PI-positive cells.

[2] = test system: tumour lines; assay: Flow cytometry-based PI uptake assay, tumour lines; type: cell-based, human; conditions: 50 μM HBD-3 (highest dose tested), 37°C, 30 min
Method: (§1) Cells suspended at 1×10^6 cells/mL in serum-free medium containing 0.1% (w/v) bovine serum albumin (BSA) (Sigma-Aldrich) were treated with HBD-3 at 37°C for 30 min. Nucleic acid stain propidium iodide (PI) was then added to a final concentration of 1 μg/mL and cells subjected to flow cytometry analysis using BD FACSCanto II Flow Cytometer and BD FACSDiva Software v6.1.1 (BD Biosciences, San Jose, CA). For each flow cytometry reading, 10,000 cells, gated appropriately based on forward scattering and side scattering, were recorded. The resultant data were processed using FlowJo software (Tree Star, San Carlos, CA) to determine PI-positivity, which reflects the level of membrane permeabilisation. For lipid inhibition assays, 15 μM HBD-3 was pre-incubated with 50 μM synthetic lipids, including L-α-phosphatidic acid (PA), L-α-phosphatidylcholine (PC), L-α-phosphatidylethanolamine (PE), L-α-phosphatidylserine (PS), L-α-phosphatidylinositol-4-phosphate (PI(4)P), L-α-phosphatidylinositol-3,5-bisphosphate (PI(3,5)P2), L-α-phosphatidylinositol-4,5-bisphosphate (PI(4,5)P2) and L-α-phosphatidylinositol-3,4,5-trisphosphate (PI(3,4,5)P)3. All lipids were sourced from Avanti Polar Lipids, Alabaster, AL. […]

[3] = test system: Primary cells, HUVEC, AHDF and CASMC; assay: Tetrazolium-based cell viability assay, primary cells; parameters: species or system human; conditions: range over HUVEC, 48 h, MTT, estimated, three independent experiments
Method: Human epithelial cervical cancer (HeLa), leukemic monocyte lymphoma (U937), prostate cancer (PC3), promyelocytic leukemia (HL-60), leukemic T cell lymphoblast (Jurkat) cells were cultured in RPMI-1640 medium supplemented with 5–10% (v/v) fetal calf serum (FCS), 100 U/mL penicillin and 100 μg/mL streptomycin (Invitrogen, Carlsbad, CA). Human umbilical vein […] cell (HUVEC) cells were cultured in M199 medium (Invitrogen) supplemented with 20% (v/v) FCS, 40 μg/mL gentamicin, 4 μg/mL endothelial cell growth factor, 4 μg/mL L-glutamine and 135 μg/mL heparin, in 0.1% (w/v) gelatin-coated Corning CELLBIND flask (Corning Life Sciences, Acton, MA). […]
Different concentrations of HBD-3 were added to cells seeded in 96-well plates in appropriate complete medium. […] After 48 h, cell viability was determined using 3-(4,5-dimethylthiazol-2-yl)-2,5-diphenyltetrazolium bromide (MTT) (Sigma-Aldrich, MO) for adherent cells (HeLa, PC3, HUVEC, AHDF, CASMC) or 3-(4,5-dimethylthiazol-2-yl)-5-(3-carboxymethoxyphenyl)-2-(4-sulfophenyl)-2H-tetrazolium (MTS) (Promega, Madison, WI) coupled with phenzine methosulfate (PMS) (Promega) for suspension cells (U937, HL-60, Jurkat) prior to absorbance measurement at 570 nm and […], respectively. Absorbance readings of untreated control wells was designated as 100% cell viability.

[4] = test system: U937 cells; assay: Flow cytometry-based PI uptake assay, U937; type: cell-based, human; conditions: 25 μM HBD-3, 37°C, 30 min, serum-free medium with 0.1% BSA
Method: as §1

[5] = test system: plasma membrane PI(4,5)P2 of U937 cells; assay: Anti-PI(4,5)P2 antibody blocking assay; type: cell-based, human; conditions: 15 μM defensins 30 min or 10 mM neomycin 3 h; cells fixed, saponin-lysed, FITC-conjugated anti-PI(4,5)P2 IgM, flow cytometry
Method: U937 cells at 1×10^6 cells/mL were treated with 10 mM neomycin for 3 h and/or 15 μM defensins for 30 min in serum-free RPMI 1640 medium containing 0.1% BSA, followed by 20 min fixation with 2% (v/w) paraformaldehyde (Sigma-Aldrich), 10 min lysis with 0.5% (w/v) saponin (Sigma-Aldrich), and then 30 min blocking with 3% (w/v) BSA. Three 5-min centrifugal washes with PBS at 500 g were also included between steps. FITC-conjugated mouse anti-PI(4,5)P2 IgM (Echelon Biosciences) or IgM control (GeneTex, Irvine, CA) was subsequently used at 10 μg/mL for 30 min prior to flow cytometry analysis.

## human β-defensin 3 (GIINTLQKYYCRVRGGRCAVLSCLPKEEQIGKCSTRGRKCCRRKK; not fully specified; cysteine pairing not given here; UniProt P81534 23-67, looked up) [HBD-3, human β-defensin 3, cationic antimicrobial peptide, recombinantly expressed in P. pastoris]
[1]
  fold lower number of PI-positive cells in GFP-PH(PLCδ) versus GFP only-transfected cells: 2.5 fold
[2]
  cells permeabilised (PI-positive): at least 80%
[3]
  IC50: 30 to 65 µM
[4]
  PI-positive cells: approximately 85%
[5]
  blocking of anti-PI(4,5)P2 antibody binding (overall fluorescence intensity vs untreated control): significant decrease of overall fluorescence intensity

Source: paper PMC4811302, “Human β-defensin 3 contains an oncolytic motif that binds PI(4,5)P2 to mediate tumour cell permeabilisation” (Oncotarget, 2015)
